Tests used:
Assay type in all cases: in vivo
[1] = Plasma pyridoxamine levels after I/R-AKI; settings: mice with IR-AKI; for average pyridoxamine plasma levels: 1000 mg/kg/day
Protocol: FIG. 6. Plasma PYR levels after I/R-AKI. (A) Mice underwent U-IR and were pre-treated for 3 days with vehicle control, PYR 500 mg/kg/day or PYR 1000 mg/kg/day in drinking water supplemented with 200 mg PYR twice a day (or vehicle) by oral gavage for 3 days after the surgical procedure. Evaluation of PYR plasma levels on Day 3 after injury. (B) Mice underwent U-IR followed by contralateral nephrectomy 8 days after the initial surgery. All mice were pre-treated with vehicle control, PYR 500 mg/kg/day or 1000 mg/kg/day in drinking water supplemented with 200 mg PYR twice a day (or vehicle) by oral gavage for 3 days after each surgical procedure. Treatment was continued for 28 days at which point mice underwent venesection for analysis of plasma PYR levels. Evaluation of PYR plasma levels on Day 28 after injury. Results expressed as mean +/−SEM, n=9-10 mice per group. Results only indicated if ANOVA p<0.05: *p<0.05, **p<0.01, ***p<0.001, #p<0.0001. Comparison with uninjured controls (no brackets), or vehicle or PYR 500 mg/kg/day treated mice (brackets).

[2] = tested on: ischemia-reperfusion model of AKI in mice (IR-AKI); assay: IR-AKI mice, pyridoxamine pre-treatment, renal fibrosis and injury markers 28 days after injury; settings: day 28 after injury
Protocol: FIG. 1. Dose dependent effects of pre-treatment with pyridoxamine (PYR) at 500 and 1000 mg/kg/day on renal fibrosis 28 days after I/R-AKI. (A) Experimental model. Mice underwent unilateral renal pedicle clamping (U-IR) followed by contralateral nephrectomy 8 days after the initial surgery. All mice were pre-treated for 3 days with either vehicle control, or PYR 500 and 1000 mg/kg/day in drinking water supplemented with 200 mg PYR twice a day (or vehicle) by oral gavage for 3 days after each surgical procedure.
(§1) Treatment was continued for 28 days at which point mice were sacrificed and kidney harvested for analysis. (B-D) Expression of renal fibrosis markers Col1α1, α-SMA and Col3α1 mRNA relative to Gapdh mRNA control. (E) Quantification of Sirius red stained (% total area). (F) Representative images for Sirius red stained tissues (outer medulla; scale bars, 50 μm). Results expressed as mean +/−SEM, n=9-10 mice per group. Results only indicated if ANOVA p<0.05: *p<0.05, **p<0.01, ***p<0.001, #p<0.0001. Comparison with uninjured controls (no brackets), or vehicle treated mice (brackets).
FIG. 2. Dose dependent effects of pre-treatment with PYR at 500 and 1000 mg/kg/day on markers of renal injury 28 days after UR-AM. Effect of PYR on Kim1 (A) and NGAL (B) mRNA on day 28 after injury. Results expressed as mean +/−SEM, n=9-10 mice per group. Results only indicated if ANOVA p<0.05: *p<0.05, **p<0.01, ***p<0.001, #p<0.0001. Comparison with uninjured controls (no brackets), or vehicle treated mice (brackets).
(§2) Two doses of pyridoxamine were administered orally, 500 mg/kg/day and 1000 mg/kg/day to an experimental model of AM, the surgical, ischemia-reperfusion model of AKI in mice (IR-AKI) [Cianciolo Cosentino et al, 2013; Skrypnyk et al, 2013], a model of renal ischemia that has been used extensively to model ischemic injury associated with cardiac surgery acquired (CSA-AKI) [Thiele et al, 2015]. For the bulk of the studies pyridoxamine was administered for 3 days prior to the induction of AKI and was continued until completion of the studies. In some experiments, pyridoxamine was administered 24 hours after the induction of AM.
The injury models and treatments were administered as illustrated in FIG. 1A. Mice underwent unilateral renal pedicle clamping (LT-IR) followed by contralateral nephrectomy 8 days after the initial surgery. All mice were pre-treated for 3 days with either vehicle control, or PYR 500 and 1000 mg/kg/day in drinking water supplemented with 200 mg PYR twice a day (or vehicle) by oral gavage for 3 days after each surgical procedure. Treatment was continued for 28 days at which point mice were sacrificed and kidneys harvested for analysis.

[3] = tested on: ischemia-reperfusion model of AKI in mice (IR-AKI); assay: IR-AKI mice, pyridoxamine pre-treatment, renal injury and oxidative stress 3 days after injury; settings: pre-treatment 1000 mg/kg/day, day 3 after injury, vs vehicle
Protocol: FIG. 5. Dose dependent effect of pre-treatment with PYR at 500 and 1000 mg/kg/day on renal injury 3 days after I/R-AKI. (A) Experimental model, Mice underwent U-IR and were pre-treated for 3 days with either vehicle control, PYR 500 mg/kg/day or PYR 1000 mg/kg/day in drinking water supplemented with 200 mg PYR twice a day (or vehicle) by oral gavage for 3 days after the surgical procedure. Mice were sacrificed and kidney harvested for analysis 3 days after the initial injury. (B, C) Renal Kim1 and NGAL mRNA expression 3 days after injury expressed as the ratio to Gapdh mRNA control. (D) Tubular injury score 3 days after injury in the OM (0-4, arbitrary units). (E) Representative images for PAS stained tissues (outer medulla; scale bars, 50 μm) F) Expression renal isofuran/isoprostane ratios after
PYR treatment with 500 and 1000 mg/kg/day 3 days after LI-IR. Results expressed as mean +/−SEM, n=9-10 mice per group. Results only indicated if ANOVA p<0.05: *p<0.05, **p<0.01, ***p<0.001, #p<0.0001. Comparison with uninjured (no brackets), or vehicle or PYR 500 mg/kalday treated mice (brackets).
as §2
To determine whether there was also a dose-dependent effect of pyridoxamine at 500 and 1000 mg/kg/day on early renal injury after IR-AKI, mice were sacrificed on day 3 after injury (FIG. 5A) to evaluate renal injury and renal oxidative stress levels.

[4] = tested on: ischemia-reperfusion model of AKI in mice (IR-AKI); assay: IR-AKI mice, pyridoxamine treatment started 24 hours after injury, renal fibrosis and injury markers at 28 days; settings: 1000 mg/kg/day started 24 hours after injury, day 28
Protocol: as §1, with “FIG. 3. […] (A) Experimental model. Mice underwent U-IR followed by contralateral nephrectomy 8 days after the initial surgery. Mice were treated with PYR 1000 mg/kg/day starting 24 hours after the initial injury supplemented with 200 mg PYR twice a day (or vehicle) by oral gavage for 3 days after each surgical procedure. Treatment” for “Treatment”, “n=8-10/group.” for “n=9-10 mice per group.”, “Results” for “Results only”, “uninjured” for “uninjured controls”, “or delayed PYR treatment” for “treated mice”
FIG. 4. No effects of treatment with PYR at 1000 mg/kg/day started 24 hours after injury on markers of renal injury 28 days after I/R-AKI. (A, B) Expression of renal injury markers Kim1 and NGAL mRNA relative to Gapdh mRNA control on day 28 after injury. Results expressed as mean +/−SEM, n=8-10/group. Results indicated if ANOVA p<0.05: *p<0.05, **p<0.01, ***p<0.001, #p<0.0001. Comparison with uninjured (no brackets), or vehicle or delayed PYR treatment (brackets).
as §2
To determine whether delayed treatment with the high dose of pyridoxamine was effective in reducing post-injury fibrosis after IR-AKI, mice were treated with PYR 1000 mg/kg/day starting 24 hours after the initial injury supplemented with 200 mg PYR twice a day (or vehicle) by oral gavage for 3 days after each surgical procedure. Treatment was continued for 28 days at which point mice were sacrificed and kidney harvested for analysis (FIG. 3A).

[5] = pre-treatment 500 and 1000 mg/kg/day oral, kidney, vs vehicle

Cc1ncc(CO)c(CN)c1O [pyridoxamine]
average pyridoxamine plasma levels ([1]; day 3): ~6 µg/mL | average pyridoxamine plasma levels ([1]; day 28): ~6 µg/mL | plasma pyridoxamine levels, dose dependence ([1]; 500 vs 1000 mg/kg/day, days 3 and 28): dose-dependent increase | expression of pro-fibrotic gene Col1α1 mRNA [2, 5]: lowered expression | expression of pro-fibrotic gene Col3α1 mRNA [2, 5]: lowered expression | expression of pro-fibrotic gene αSMA mRNA [2, 5]: lowered expression | level of fibrosis (Sirius red staining) [2, 5]: decreased level of fibrosis | expression of renal injury marker Kim1 ([2]; pre-treatment 500 and 1000 mg/kg/day): lowered expression | histological tubular injury scores ([3]; outer medulla): reduction | renal NGAL mRNA expression [3]: significant, dose-dependent decrease | renal levels of oxidative stress marker isofuran-to-isoprostane ratio [3]: reduction | expression of injury marker Kim1 [4]: did not lower expression | expression of injury marker NGAL [4]: did not lower expression | expression of pro-fibrotic gene Col3α1 mRNA [4]: lowered expression | expression of pro-fibrotic gene αSMA mRNA [4]: lowered expression | post-injury fibrosis (Sirius red staining) [4]: decreased post-injury fibrosis | expression of injury marker Kim1 ([4]; listed as PYR): No effects | expression of injury marker NGAL ([4]; listed as PYR): No effects | post-injury fibrosis (Sirius red staining) ([4]; listed as PYR): Beneficial effects

Source: patent US20170042869A1, “Methods for limiting acute kidney injury” (VANDERBILT UNIVERSITY, priority 2014, published 2017)
